Source: patent US9709557B2, “Anthraquinone based near IR emitting compounds and uses thereof” (LIFE TECHNOLOGIES CORPORATION, priority 2008, dated 2017)

How the values were obtained:
[1] = system: U-2 OS cells (ATCC HTB-96); assay: Imaging of cells stained with near-IR DNA stain (Example 48); format: cell-based; settings: 20 μM, live, fixed or simultaneously fixed cells
Protocol: Live U-2 OS cells (ATCC HTB-96) were treated with Compound 9 under various conditions and imaged with a 10×/0.3 objective on an ArrayScan VTI automated microscope platform (ThermoFisher/Cellomics). […] Such staining patterns have been routinely utilized in auto-focus and cell identification in automated microscopy. Cells were fixed with 3.7% formaldehyde (diluted from Sigma F1635) in the presence of 20 μM Compound 9 for 30 minutes at room temperature. The fixed cells were imaged and show similar prominent nuclear and dim cytosolic labeling (FIG. 4).

Live Jurkat cells [2] = assay: DNA staining of live cells and DNA content cell cycle analysis using flow cytometry (Example 36); format: cell-based, human; settings: for G2/G1 ratio: 30 min
Protocol: Live Jurkat cells are suspended at 5×10^5 cells/ml in each RPMI media with 10% Fetal Bovine Serum (FBS) and Hanks Balanced Salt Solution (HBSS). A compound (e.g., Compound 9 or a salt thereof) is added to each of one mL cell suspensions at concentrations 1 μM, 5 μM, 10 μM, and 20 μM, and then incubated at 37° C. or room temperature for 30 minutes while protected from light. Cells are run through a Becton Dickinson (BD) LSRII Flow Cytometer. Forward Scatter (FS) versus Side Scatter (SS) dual parameter plot is used to gate main cell population. Fluorescence is collected using three lasers: 488 nm excitation laser with 670/14, 720/20 and 787/42 bandpass emission filter, 532 nm excitation laser with 585/42 and 780/60 bandpass emission filters, and 633 nm excitation laser with 695/40, and 787/42 bandpass emission filters. Collection of at least 10,000 events at flow rate of ˜200 events/second. The data is further analyzed using MODFIT LT Flow Cytometry Modeling Software from Verity Software House, Inc. to evaluate the ratio of G2/G1 and the % CV of G1 phase.
DNA content analysis in living cells is expected to produce variable results. Depending on the cell type, the % CV of the mean DNA content of a uniform cell population may vary from between 5%-10%. Although there is no formal consensus regarding the acceptable maximal CV value for the mean DNA content of the G0G1 phase, the % CV of normal diploid cells in a histogram generally is <8%. The CV of a tumor may be higher due to the presence of multiple tumor subpopulations. However, tumor CVs of <8% are recommended for useful S-Phase determinations (Cytometry, Vol. 14 (5), 1993, page 474).
Linearity is the observed ratio between the DNA Diploid G2M and G0G1 positions. The ratio normally is about two, but this ratio may deviate from the ideal value even under normal conditions (see, MODFIT LT User Guide, June 2000).

Live Jurkat cells [3] = assay: Comparison of DNA stains on cell viability (Example 44); format: cell-based; settings: human, 72 h, 5 μM
Protocol: Live Jurkat cells are suspended at 5×10^5 cells/ml in complete RPMI media with 10% FBS. Four aliquots of 10 ml each of the cell suspension are made. A final concentration of 5 μM Hoechst 33342 (Invitrogen Corporation) is added to one aliquot, a final concentration of 5 μM DRAQ5 (Biostatus Limited, UK) is added to one aliquot, a final concentration of 5 μM Compound 9 is added to one aliquot, and one aliquot remains untreated as a control. All four aliquots are placed in a 37° C. waterbath for 30 minutes in protected from light. After the incubation, all cell suspensions are centrifuged, the cells are pelleted and the supernatant discarded. To each aliquot, 5 ml media is added. Four culture flasks are prepared by adding 35 ml media to each. One 5 ml aliquot of cells is added to one flask for each on the four cell suspensions aliquots. The flasks are placed in a 37° C. incubator with 5% CO2 in the dark for 72 hours. Each flask of cells is then gently mixed and cell suspension is removed for testing. The cell concentration and image is performed using the Cellometer instrument from Nexcelom. Percentage and absolute cell counts of live and dead cells for each treatment are determined using the LIVE/DEAD Viability/Cytotoxicity Kit (Invitrogen Corporation, Carlsbad, Calif.) with COUNTBRIGHT Absolute Counting Beads (Invitrogen Corporation). This involves adding one ml cell suspension to a 12×75 mm test tube and adding 2 μl of a 50 μM calcein AM solution to identify living cells and 4 μl of a 2 mM ethidium homodimer-1 solution to identify dead cells. The cell suspension is mixed and incubated for 20 minutes at room temperature protected from light. After the end of the incubation, 50 μl of well mixed COUNTBRIGHT absolute counting beads are added to each test tube. Each sample is run through the Becton Dickinson (BD) LSRII Flow Cytometer. Forward Scatter (FS) versus Side Scatter (SS) dual parameter plot is used to gate main cell population, and a separate gate is made around the bead population. Fluorescence is collected using 488 nm excitation laser with 530/30 bandpass and 610/20 bandpass emission filters. Markers on a dual parameter plot of calcein fluorescence versus ethidium homodimer-1 fluorescence is used to obtain percent of cells which are living and dead, as well as number of cell events recorded. By using the COUNTBRIGHT absolute counting beads assay, the absolute number of living and dead cells is calculated by using the equation: A/B×C/D=concentration of cells/μL (A=number of cell events, B=number of bead events, C=assigned bead count, D=volume of the sample in μl).

[4] = system: Jurkat cells fixed in 70% cold ethanol; assay: Staining of fixed cells, DNA content cell cycle by flow cytometry (Example 41); format: cell-based, human; settings: 5 μM, PBS, room temperature 30 min
Protocol: Live Jurkat cells are fixed 70% cold ethanol and stored at −20° C. for one month. The cells are the washed in phosphate buffered saline (PBS) and resuspended in PBS at 5×10^5 cells/ml. Cells are labeled with a 5 μM solution of a compound according to the invention (e.g., Compound 9 or a salt thereof) at room temperature for 30 minutes and then run through two flow cytometers: A BD LSRII using 488 nm excitation and 695/40 nm emission and an Accuri C6 using 488 nm excitation and >670 nm emission, collecting 10,000 events at low flow rate. Markers are placed on the G0G1 and G2M peaks to look at % CV of the G0G1 peak and the ratio of G2M/G0G1.

[5] = Accuri C6, 488 nm excitation, >670 nm
[6] = BD LSRII, 488 nm excitation, 695/40

SMILES: CN(C)CCNC(=O)CNc1ccc(O)c2c1C(=O)c1c(O)ccc(N)c1C2=O [Compound 9]
- staining pattern [1]: prominent nuclear and relatively dim cytsolic staining
- G2/G1 ratio (Live Jurkat cells [2]; 1 μM, RPMI media, 37° C.): 1.91
- G2/G1 ratio (Live Jurkat cells [2]; 5 μM, RPMI media, 37° C.): 1.83
- G2/G1 ratio (Live Jurkat cells [2]; 10 μM, HBSS buffer, 37° C.): 1.84
- G2/G1 ratio (Live Jurkat cells [2]; 10 μM, HBSS buffer, room temperature): 1.83
- G2/G1 ratio (Live Jurkat cells [2]; 10 μM, RPMI media, 37° C.): 1.82
- G2/G1 ratio (Live Jurkat cells [2]; 10 μM, RPMI media, room temperature): 1.82
- G2/G1 ratio (Live Jurkat cells [2]; 20 μM, RPMI media, 37° C.): 1.87
- % CV of G1-phase (Live Jurkat cells [2]; all concentrations (1-20 μM), media and HBSS, 37° C. and room temperature, MODFIT): < 8%
- G2/G1 ratios (linearity) (Live Jurkat cells [2]; all concentrations, MODFIT analysis): indicating linearity of staining
- DNA staining of live cells (Live Jurkat cells [2]; excited by 488, 532 and 633 nm lasers): effective stain for DNA
- % Dead Cells (Live Jurkat cells [3]): 26.4%
- % Living Cells (Live Jurkat cells [3]): 71.2%
- Cell Count (Cellometer) (Live Jurkat cells [3]): 2.54 × 10^5 cells/mL
- Cell Count (Flow Cytommetry) (Live Jurkat cells [3]): 0.7 × 10^5 cells/mL
- % CV of the G0G1 peak [4, 5]: 5.9%
- ratio of G2M/G0G1 [4, 5]: 1.85
- % CV of the G0G1 peak [4, 6]: 6.0%
- ratio of G2M/G0G1 [4, 6]: 1.83
